Drawing on ChEMBL document CHEMBL1137023, “Synthesis and antibacterial activity of arylpiperazinyl oxazolidinones with diversification of the N-substituents” (2004), this text covers MIC and ED50 for 30 molecules.

≈ marks a conversion by molar mass, not a printed value.

In one test the test system is Enterococcus faecalis. In words: Minimum inhibitory concentration against Enterococcus faecalis ATCC 29212. In kind it is functional.
For test [1], the system named is Staphylococcus aureus. Kind of test: Minimum inhibitory concentration against Staphylococcus aureus ATCC 25923. In kind it is functional.
A short description of test [2]: Minimum inhibitory concentration against […] ATCC 13813. The settings on record: Streptococcus agalactiae. In kind it is functional.
The test system of test [3] is Staphylococcus aureus. Kind of test: Antibacterial activity against Staphylococcus aureus was evaluated in infected mice. In kind it is functional.
The subject of a further test is Streptococcus pyogenes. Kind of test: Minimum inhibitory concentration against Streptococcus pyogenes ATCC 8668.

For the molecule `CSC(=S)NC[C@H]1CN(c2ccc(N3CCN(c4ccccn4)CC3)c(F)c2)C(=O)O1`, the MIC with Enterococcus faecalis is 0.12 µg/mL (≈ 0.26 µM); in the test on Staphylococcus aureus [1], 0.06 µg/mL (≈ 0.13 µM); in test [2], 0.25 µg/mL (≈ 0.542 µM). The molecule further displayed a median effective dose (ED50) in the test on Staphylococcus aureus [3] of more than 16 mg/kg.

On to `NC(=S)NC[C@H]1CN(c2ccc(N3CCN(c4ccccn4)CC3)c(F)c2)C(=O)O1`, for which the MIC with Enterococcus faecalis was 0.25 µg/mL (≈ 0.581 µM); in the test with Staphylococcus aureus [1], 0.12 µg/mL (≈ 0.279 µM); in test [2] it was 0.12 µg/mL (≈ 0.279 µM).

On to `CC(=S)NC[C@H]1CN(c2ccc(N3CCN(c4cccc(F)c4)CC3)c(F)c2)C(=O)O1`, for which the MIC against Enterococcus faecalis is 0.03 µg/mL (≈ 0.0672 µM); with Staphylococcus aureus [1], 0.12 µg/mL (≈ 0.269 µM); in test [2], 0.12 µg/mL (≈ 0.269 µM).

Take `O=C1O[C@@H](COc2ccccn2)CN1c1ccc(N2CCN(c3ccccc3Cl)CC2)c(F)c1`: the minimum inhibitory concentration (MIC) (with Enterococcus faecalis; in the test with Staphylococcus aureus [1]; in test [2]; with Streptococcus pyogenes) was more than 64 µg/mL throughout.

As for `COC(=S)NC[C@H]1CN(c2ccc(N3CCN(c4ccccc4)CC3)c(F)c2)C(=O)O1`, the MIC with Enterococcus faecalis worked out at 0.25 µg/mL (≈ 0.562 µM); against Staphylococcus aureus [1] it was 0.25 µg/mL (≈ 0.562 µM); in test [2] it was 0.12 µg/mL (≈ 0.27 µM).

For `CC(=S)NC[C@H]1CN(c2ccc(N3CCN(c4ccccc4C)CC3)c(F)c2)C(=O)O1`, the minimum inhibitory concentration (MIC) against Enterococcus faecalis was found to be 0.05 µg/mL (≈ 0.113 µM); in the test on Staphylococcus aureus [1], 0.12 µg/mL (≈ 0.271 µM); in test [2] it was 0.12 µg/mL (≈ 0.271 µM).

In the case of `COc1cccc(N2CCN(c3ccc(N4C[C@H](CNC(N)=S)OC4=O)cc3F)CC2)c1`, the MIC against Enterococcus faecalis stood at 0.06 µg/mL (≈ 0.131 µM); against Staphylococcus aureus [1], 0.03 µg/mL (≈ 0.0653 µM); in test [2], 0.06 µg/mL (≈ 0.131 µM).

Turning to `COC(=S)NC[C@H]1CN(c2ccc(N3CCN(c4ccccn4)CC3)c(F)c2)C(=O)O1`, the minimum inhibitory concentration (MIC) came out at 0.12 µg/mL (≈ 0.269 µM) against Enterococcus faecalis, 0.12 µg/mL (≈ 0.269 µM) against Staphylococcus aureus [1] and 0.06 µg/mL (≈ 0.135 µM) in test [2]. In the test on Staphylococcus aureus [3], this molecule returned a 50% effective dose (ED50) of more than 16 mg/kg.

As to `CSC(=S)NC[C@H]1CN(c2ccc(N3CCN(c4ccccc4C)CC3)c(F)c2)C(=O)O1`, the minimum inhibitory concentration (MIC) (against Enterococcus faecalis; in the test with Staphylococcus aureus [1]; in test [2]) was 0.12 µg/mL (≈ 0.253 µM) in each case.

Turning to `CC(=S)NC[C@H]1CN(c2ccc(N3CCN(c4cccc(Cl)c4)CC3)c(F)c2)C(=O)O1`, the minimal inhibitory concentration (MIC) with Enterococcus faecalis worked out at 0.06 µg/mL (≈ 0.13 µM); in the test on Staphylococcus aureus [1], 0.03 µg/mL (≈ 0.0648 µM); in test [2], 0.03 µg/mL (≈ 0.0648 µM). This molecule yielded an ED50 in the test on Staphylococcus aureus [3] of more than 16 mg/kg.

As to `COc1cccc(N2CCN(c3ccc(N4C[C@H](CNC(=S)SC)OC4=O)cc3)CC2)c1`, the minimal inhibitory concentration (MIC) was 0.12 µg/mL (≈ 0.254 µM) in the test with Enterococcus faecalis, 0.12 µg/mL (≈ 0.254 µM) against Staphylococcus aureus [1] and 0.25 µg/mL (≈ 0.529 µM) in test [2].

Regarding `CC(=S)NC[C@H]1CN(c2ccc(N3CCN(c4ccccc4Cl)CC3)c(F)c2)C(=O)O1`, the figures for the MIC (in the test with Enterococcus faecalis; in the test with Staphylococcus aureus [1]; in test [2]) were more than 64 µg/mL, 0.12 µg/mL (≈ 0.259 µM) and 0.12 µg/mL (≈ 0.259 µM), respectively.

As to `NC(=S)NC[C@H]1CN(c2ccc(N3CCN(c4ccccc4)CC3)cc2)C(=O)O1`, the MIC was found to be 0.12 µg/mL (≈ 0.292 µM) in the test with Enterococcus faecalis, 0.12 µg/mL (≈ 0.292 µM) in the test on Staphylococcus aureus [1] and 0.25 µg/mL (≈ 0.607 µM) in test [2].

On to `COc1ccccc1N1CCN(c2ccc(N3C[C@H](CNC(N)=S)OC3=O)cc2F)CC1`, for which the MIC (in the test on Enterococcus faecalis; with Staphylococcus aureus [1]; in test [2]) was 0.25 µg/mL (≈ 0.544 µM) each time.

Consider `NC(=S)NC[C@H]1CN(c2ccc(N3CCN(c4ccccc4Cl)CC3)cc2)C(=O)O1`, for which the minimum inhibitory concentration (MIC) was determined as 0.06 µg/mL (≈ 0.135 µM) in the test with Enterococcus faecalis, 0.03 µg/mL (≈ 0.0673 µM) against Staphylococcus aureus [1] and 0.06 µg/mL (≈ 0.135 µM) in test [2].

As for `NC(=S)NC[C@H]1CN(c2ccc(N3CCN(c4ccccc4Cl)CC3)c(F)c2)C(=O)O1`, the minimum inhibitory concentration (MIC) was 0.25 µg/mL (≈ 0.539 µM) against Enterococcus faecalis, 0.12 µg/mL (≈ 0.259 µM) in the test on Staphylococcus aureus [1] and 0.12 µg/mL (≈ 0.259 µM) in test [2].

Regarding `O=C1O[C@@H](COC2CNCCN2)CN1c1ccc(N2CCN(c3ccccc3Cl)CC2)c(F)c1` (stereo partly drawn), the MIC (in the test on Enterococcus faecalis; in the test with Staphylococcus aureus [1]; in test [2]; in the test with Streptococcus pyogenes) was more than 64 µg/mL throughout.

Take `CC(=S)NC[C@H]1CN(c2ccc(N3CCN(c4ccc(Cl)cc4)CC3)c(F)c2)C(=O)O1`: the MIC in the test with Enterococcus faecalis came to 0.25 µg/mL (≈ 0.54 µM); with Staphylococcus aureus [1] it was 0.12 µg/mL (≈ 0.259 µM); in test [2] it was 0.25 µg/mL (≈ 0.54 µM).

With `NC(=S)NC[C@H]1CN(c2ccc(N3CCN(c4cccc(C(F)(F)F)c4)CC3)c(F)c2)C(=O)O1`, the values for the minimum inhibitory concentration (MIC) (in the test with Enterococcus faecalis; with Staphylococcus aureus [1]; in test [2]) were 0.25 µg/mL (≈ 0.502 µM), 0.25 µg/mL (≈ 0.502 µM) and 0.12 µg/mL (≈ 0.241 µM), respectively.

Take `COC(=S)NC[C@H]1CN(c2ccc(N3CCN(c4cccc(Cl)c4)CC3)c(F)c2)C(=O)O1`: the minimal inhibitory concentration (MIC) (with Enterococcus faecalis; against Staphylococcus aureus [1]; in test [2]) was 0.12 µg/mL (≈ 0.251 µM) in each case.

In the case of `NC(=S)NC[C@H]1CN(c2ccc(N3CCN(c4ccc(Cl)cc4)CC3)c(F)c2)C(=O)O1`, the MIC against Enterococcus faecalis came out at 0.5 µg/mL (≈ 1.08 µM); with Staphylococcus aureus [1] it was 0.12 µg/mL (≈ 0.259 µM); in test [2] it was 0.12 µg/mL (≈ 0.259 µM).

Turning to `Cc1ccccc1N1CCN(c2ccc(N3C[C@H](CNC(N)=S)OC3=O)cc2F)CC1`, the minimum inhibitory concentration (MIC) against Enterococcus faecalis came to 0.25 µg/mL (≈ 0.564 µM); with Staphylococcus aureus [1], 0.12 µg/mL (≈ 0.271 µM); in test [2] it was 0.12 µg/mL (≈ 0.271 µM).

As to `NC(=S)NC[C@H]1CN(c2ccc(N3CCN(c4ccccc4)CC3)c(F)c2)C(=O)O1`, the minimum inhibitory concentration (MIC) stood at 0.12 µg/mL (≈ 0.279 µM) against Enterococcus faecalis, 0.06 µg/mL (≈ 0.14 µM) in the test with Staphylococcus aureus [1] and 0.06 µg/mL (≈ 0.14 µM) in test [2].

As for `CSC(=S)NC[C@H]1CN(c2ccc(N3CCN(c4cccc(Cl)c4)CC3)c(F)c2)C(=O)O1`, the MIC turned out to be 0.5 µg/mL (≈ 1.01 µM) in the test on Enterococcus faecalis, 0.12 µg/mL (≈ 0.242 µM) against Staphylococcus aureus [1] and 1 µg/mL (≈ 2.02 µM) in test [2].

`O=C1O[C@@H](CO[n+]2ccco2)CN1c1ccc(N2CCN(c3ccccc3Cl)CC2)c(F)c1`: the MIC (against Enterococcus faecalis; against Staphylococcus aureus [1]; in test [2]; against Streptococcus pyogenes) was more than 64 µg/mL in each case.

For `CC(=S)NC[C@H]1CN(c2ccc(N3CCN(c4ccccc4)CC3)c(F)c2)C(=O)O1`, the MIC against Enterococcus faecalis turned out to be 0.25 µg/mL (≈ 0.583 µM); against Staphylococcus aureus [1] it was 0.12 µg/mL (≈ 0.28 µM); in test [2] it was 0.12 µg/mL (≈ 0.28 µM).

Consider `NC(=S)NC[C@H]1CN(c2ccc(N3CCN(c4cccc(Cl)c4)CC3)c(F)c2)C(=O)O1`, for which the MIC against Enterococcus faecalis is 0.06 µg/mL (≈ 0.129 µM); in the test on Staphylococcus aureus [1] it was 0.02 µg/mL (≈ 0.0431 µM); in test [2], 0.008 µg/mL (≈ 0.0172 µM). In addition, the ED50 in the test with Staphylococcus aureus [3] was more than 16 mg/kg.

Turning to `COC(=S)NC[C@H]1CN(c2ccc(N3CCN(c4cccc(OC)c4)CC3)c(F)c2)C(=O)O1`, the MIC (against Enterococcus faecalis; with Staphylococcus aureus [1]; in test [2]) was 0.12 µg/mL (≈ 0.253 µM) each time.

In the case of `CC(=S)NC[C@H]1CN(c2ccc(N3CCN(c4ccccn4)CC3)c(F)c2)C(=O)O1`, the results for the MIC (with Enterococcus faecalis; in the test on Staphylococcus aureus [1]; in test [2]) were 0.25 µg/mL (≈ 0.582 µM), 0.06 µg/mL (≈ 0.14 µM) and 0.12 µg/mL (≈ 0.279 µM), respectively.

On to `CC(=O)NC[C@H]1CN(c2ccc(N3CCOCC3)c(F)c2)C(=O)O1` [LINEZOLID], for which the MIC is 0.25 µg/mL (≈ 0.741 µM) against Staphylococcus aureus [1], 0.5 µg/mL (≈ 1.48 µM) in test [2] and 0.5 µg/mL (≈ 1.48 µM) against Streptococcus pyogenes. This molecule displayed an ED50 in the test on Staphylococcus aureus [3] of 4 mg/kg.
